Assay results taken from patent US20040018579A1, “Dye-labelled peptide and method” (priority 2000, published 2004).
No end group written: not given here. Cy5Q = cyanine dye quencher coupled to the N-terminus (from Cy5Q-NHS)

Test system: AspN
Test: Endoproteinase AspN cleavage assay
Type: biochemical
Details: 2 μM, 500 μl, AspN 100 ng, overnight at ambient temperature, excitation 520 nm, emission 540-750 nm
Description: The fluorescence intensity of compound A (2 μM, 500 μl volume) in a quartz cuvette was recorded using a spectrofluorimeter. The sample was excited at 520 nm and emission over 540-750 nm recorded. AspN (100 ng, 50 μl volume) was added to the sample in the cuvette, which was stoppered, and kept dark at ambient temperature overnight. The fluorescence intensity was again recorded. […] Tween™ is a trademark of ICI Americas, Inc.

**Q.** How did the “Cy3 fluorescence on AspN-catalysed hydrolysis” value turn out when “Cy5Q -Asp-Glu-Val-Asp-Arg-Ser-Gly-Ser-Gly-Ser-Cy3-Ala-Leu-Thr-OH (Cy5Q-DEVDRSGSGS; not fully specified (C-terminus)) [Compound A]” was run?
**A.** increase in Cy3 fluorescence
